Measured values taken from patent publication US8008322B2, “Substituted pyrazolopyridines, compositions containing them, method for the production thereof, and their use” (Aventis Pharma S.A., priority 2005, dated 2011).

Tests used:
human FAK = target: T1, human FAK (Homo sapiens, UniProt Q05397); assay: FAK autophosphorylation inhibition, time-resolved fluorescence test (HTRF); assay type: biochemical; conditions: 15 μM ATP, 1 hour at 37° C., read-out: FAK IC 50
T1 construct: The whole cDNA of human FAK, the N-terminal end of which has been labelled with histidine; made in house; host or cells: baculovirus expression system (pFastBac HTc)
T1 sequence (Q05397 whole entry): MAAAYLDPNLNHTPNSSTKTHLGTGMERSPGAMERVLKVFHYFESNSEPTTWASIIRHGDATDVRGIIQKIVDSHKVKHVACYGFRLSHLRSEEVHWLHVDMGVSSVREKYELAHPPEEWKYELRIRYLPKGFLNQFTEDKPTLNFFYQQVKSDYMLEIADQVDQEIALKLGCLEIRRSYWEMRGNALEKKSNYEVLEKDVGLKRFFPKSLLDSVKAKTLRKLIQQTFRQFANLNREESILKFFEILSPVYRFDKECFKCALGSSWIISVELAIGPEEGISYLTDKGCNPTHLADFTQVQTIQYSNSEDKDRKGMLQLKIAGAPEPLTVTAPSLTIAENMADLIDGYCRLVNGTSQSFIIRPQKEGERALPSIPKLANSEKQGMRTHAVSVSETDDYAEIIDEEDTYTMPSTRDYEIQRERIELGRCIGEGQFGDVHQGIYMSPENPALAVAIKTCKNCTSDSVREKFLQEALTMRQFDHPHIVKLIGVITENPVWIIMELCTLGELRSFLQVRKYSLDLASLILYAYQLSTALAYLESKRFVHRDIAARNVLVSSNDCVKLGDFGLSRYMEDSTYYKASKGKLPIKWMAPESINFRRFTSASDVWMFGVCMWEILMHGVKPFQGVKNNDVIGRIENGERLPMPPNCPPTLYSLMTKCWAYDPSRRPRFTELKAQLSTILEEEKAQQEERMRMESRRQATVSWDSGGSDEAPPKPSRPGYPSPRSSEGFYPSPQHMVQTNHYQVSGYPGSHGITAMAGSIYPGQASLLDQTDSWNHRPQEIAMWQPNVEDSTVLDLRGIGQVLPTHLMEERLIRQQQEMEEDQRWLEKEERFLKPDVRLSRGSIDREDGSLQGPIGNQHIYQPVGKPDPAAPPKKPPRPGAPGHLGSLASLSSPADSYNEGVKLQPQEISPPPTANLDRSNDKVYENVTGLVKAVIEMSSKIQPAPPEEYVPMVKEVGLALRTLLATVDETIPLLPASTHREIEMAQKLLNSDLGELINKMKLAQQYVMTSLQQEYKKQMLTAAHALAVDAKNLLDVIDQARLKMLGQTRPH
Protocol: The inhibitory activity of the compounds on FAK is determined by measuring the inhibition of autophosphorylation of the enzyme using a time-resolved fluorescence test (HTRF).
The whole cDNA of human FAK, the N-terminal end of which has been labelled with histidine, was cloned in a pFastBac HTc baculovirus expression vector. The protein was expressed and purified to about 70% homogeneity.
The kinase activity is determined by incubating the enzyme (6.6 μg/mL) with different concentrations of test compound in a 50 mM Hepes pH=7.2, 10 mM MgCl2, 100 μm Na3VO4, 15 μM ATP buffer for 1 hour at 37° C. The enzymatic reaction is stopped by adding Hepes pH=7.0 buffer containing 0.4 mM KF, 133 mM EDTA, 0.1% BSA and the labelling is performed, for 1 to 2 hours at room temperature, by adding to this buffer an anti-Histidine antibody labelled with XL665 and a tyrosine phosphospecific monoclonal antibody conjugated to europium cryptate (Eu—K). The characteristics of the two fluorophores are available in G. Mathis et al., Anticancer Research, 1997, 17, pages 3011-3014. The energy transfer from the excited europium cryptate to the acceptor XL665 is proportional to the degree of autophosphorylation of FAK. The long-lasting signal specific for XL-665 is measured in a Packard Discovery plate counter. All the tests are performed in duplicate and the average of the two tests is calculated. The inhibition of the autophosphorylation activity of FAK with compounds of the invention is expressed as a percentage of inhibition relative to a control whose activity is measured in the absence of test compound. To calculate the percentage inhibition, the ratio [signal at 665 nm/signal at 620 nm] is considered.

human Tie2 = target: T2, human Tie2 (Homo sapiens, UniProt Q02763); assay: Tie2 phosphorylation of PLC inhibition, FlashPlate radioactivity; assay type: biochemical; conditions: GST-Tie2 intracellular domain 776-1124, substrate GST-PLC, 33P-ATP, one hour at 37° C.; read-out: TIE2 IC 50
T2 construct: the amino acids of the intracellular domain 776-1124; made in house; host or cells: baculovirus expression system (pFastBacGT)
T2 sequence (Q02763 776-1124): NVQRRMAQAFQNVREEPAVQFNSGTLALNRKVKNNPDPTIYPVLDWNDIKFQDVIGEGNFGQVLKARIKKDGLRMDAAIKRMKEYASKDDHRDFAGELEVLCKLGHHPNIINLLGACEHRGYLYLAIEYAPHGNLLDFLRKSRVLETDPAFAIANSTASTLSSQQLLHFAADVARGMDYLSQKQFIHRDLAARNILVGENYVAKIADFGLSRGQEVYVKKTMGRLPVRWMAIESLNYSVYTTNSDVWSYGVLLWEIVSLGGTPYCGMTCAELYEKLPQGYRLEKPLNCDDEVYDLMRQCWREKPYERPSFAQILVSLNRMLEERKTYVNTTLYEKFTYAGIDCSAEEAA
Protocol: This sequence was introduced into a pFastBacGT baculovirus expression vector in the form of a GST fusion protein. The inhibitory effect of the molecules is determined in a test of phosphorylation of PLC with Tie2 in the presence of GST-Tie2 purified to about 80% homogeneity. The substrate is composed of the SH2-SH3 fragments of PLC expressed in the form of a GST fusion protein.
The kinase activity of Tie2 is measured in a MOPS 20 mM pH 7.2 buffer, containing 10 mM MgCl2, 10 mM MnCl2, 1 mM DTT, 10 mM of glycerophosphate. In a 96-well FlashPlate plate maintained on ice, a reaction mixture is deposited, composed of 70 μL of kinase buffer containing 100 ng of enzyme GST-Tie2 per well. Next, 10 μL of the test molecule diluted in DMSO to a maximum concentration of 10% are added. For a given concentration, each measurement is performed four times. […] After incubation for one hour at 37° C., the reaction is stopped by adding 1 volume (100 μl) of EDTA 200 mM. After removal of the incubation buffer, the wells are washed three times with 300 μL of PBS. The radioactivity is measured on a MicroBeta1450 Wallac.
The inhibition of the Tie2 activity is calculated and expressed as a percentage of inhibition relative to the control activity determined in the absence of compound.

human KDR enzyme = target: T3, human KDR enzyme (Homo sapiens, UniProt P35968); assay: KDR substrate phosphorylation inhibition, scintillation technique; assay type: biochemical; conditions: GST-KDR cytoplasmic domain, substrate SH2-SH3 fragment of PLCγ, 33P-ATP, one hour at 37° C.; read-out: KDR IC 50
T3 construct: The cytoplasmic domain of the human KDR enzyme was cloned in the form of a GST fusion protein; GST; made in house; host or cells: SF21 insect cells (baculovirus, pFastBac)
T3 sequence (P35968 786-1356 limits assumed): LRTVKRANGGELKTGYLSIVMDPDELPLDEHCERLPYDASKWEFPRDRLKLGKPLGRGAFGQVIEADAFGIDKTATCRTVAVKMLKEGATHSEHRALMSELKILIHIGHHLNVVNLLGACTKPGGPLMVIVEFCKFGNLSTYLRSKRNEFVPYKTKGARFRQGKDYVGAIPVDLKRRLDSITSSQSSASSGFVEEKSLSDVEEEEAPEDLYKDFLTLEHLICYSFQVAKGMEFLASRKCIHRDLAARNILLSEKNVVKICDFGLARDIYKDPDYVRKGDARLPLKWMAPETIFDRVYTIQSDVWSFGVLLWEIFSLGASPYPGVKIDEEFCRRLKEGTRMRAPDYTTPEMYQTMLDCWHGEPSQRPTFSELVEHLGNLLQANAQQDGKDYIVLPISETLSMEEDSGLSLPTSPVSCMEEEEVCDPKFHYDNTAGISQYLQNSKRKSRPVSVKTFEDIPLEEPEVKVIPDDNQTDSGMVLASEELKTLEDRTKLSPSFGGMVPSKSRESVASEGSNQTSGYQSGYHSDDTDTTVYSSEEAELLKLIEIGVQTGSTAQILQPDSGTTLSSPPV
Protocol: The inhibitory effect of the compounds is determined in an in vitro test of phosphorylation of substrate with the enzyme KDR via a scintillation technique (96-well plate, NEN).
The cytoplasmic domain of the human KDR enzyme was cloned in the form of a GST fusion protein in the pFastBac baculovirus expression vector.
The KDR kinase activity is measured in a 20 mM MOPS, 10 mM MgCl2, 10 mM MnCl2, 1 mM DTT, 2.5 mM EGTA, 10 mM b-glycerophosphate, pH=7.2 buffer, in the presence of 10 mM MgCl2, 100 μm Na3VO4, 1 mM NaF. 10 μl of the compound are added to 70 μL of kinase buffer containing 100 ng of KDR enzyme at 4° C. The reaction is initiated by adding 20 μL of solution containing 2 μg of substrate (SH2-SH3 fragment of PLCγ expressed in the form of a GST fusion protein), 2 μCi of γ^33P[ATP] and 2 μm of cold ATP. After incubation for one hour at 37° C., the reaction is stopped by adding 1 volume (100 μl) of 200 mM EDTA. The incubation buffer is removed, and the wells are washed three times with 300 μL of PBS. The radioactivity in each well is measured using a Top Count NXT radioactivity counter (Packard).
The background is determined by measuring the radioactivity in four different wells containing radioactive ATP and the substrate alone.
A total activity control is measured in four different wells containing all the reagents (γ^33P-[ATP], KDR and substrate PLCγ), but in the absence of compound.
The inhibition of the KDR activity with the compound of the invention is expressed as a percentage of inhibition of the control activity determined in the absence of compound.

Row | Compound | IC50 (human FAK) [nM] | IC50 (human Tie2) [nM] | IC50 (human KDR enzyme) [nM] | melting point [°C]
1 | Nc1n[nH]c2nccc(-c3ccc(NC(=O)Nc4cc(C(F)(F)F)ccc4F)cc3)c12 [Example 1, 1-[4-(3-Amino-1H-pyrazolo[3,4-b]pyrid-4-yl)phenyl]-3-(2-fluoro-5-trifluoromethylphenyl)urea] | 264 |  |  | 
2 | Nc1n[nH]c2nccc(-c3ccc(NC(=O)Nc4cc(C(F)(F)F)ccc4F)nc3)c12 [Example 2, 1-[5-(3-Amino-1H-pyrazolo[3,4-b]pyrid-4-yl)pyrid-2-yl]-3-(2-fluoro-5-trifluoromethylphenyl)urea] | 150 | 23 | 940 | 
3 | Nc1n[nH]c2ccnc(-c3ccc(NC(=O)Nc4cc(C(F)(F)F)ccc4F)cc3)c12 [Example 3, 1-[4-(3-Amino-1H-pyrazolo[4,3-c]pyrid-4-yl)phenyl]-3-(2-fluoro-5-trifluoromethylphenyl)urea] | 73 | 5 | 33 | 
4 | COc1ccc(C(F)(F)F)cc1NC(=O)Nc1ccc(-c2nccc3[nH]nc(N)c23)cc1 [Example 10, 1-[4-(3-Amino-1H-pyrazolo[4,3-c]pyrid-4-yl)phenyl]-3-(2-methoxy-5-trifluoromethylphenyl)urea] |  | 10 | 60 | 200
5 | COc1ccc(C(F)(F)F)cc1NC(=O)Nc1ccc(-c2ccnc3[nH]nc(N)c23)cn1 [Example 6, 1-[5-(3-Amino-1H-pyrazolo[3,4-b]pyrid-4-yl)pyrid-2-yl]-3-(2-methoxy-5-trifluoromethylphenyl)urea] | 190 | 27 | 1860 | > 260
6 | CCOc1ccc(C(F)(F)F)cc1NC(=O)Nc1ccc(-c2ccnc3[nH]nc(N)c23)cc1 [Example 14, 1-[4-(3-Amino-1H-pyrazolo[3,4-b]pyrid-4-yl)phenyl]-3-(2-ethoxy-5-trifluoromethylphenyl)urea] |  | 21 | 24 | 
7 | COc1ccc(C(C)(C)C)cc1NC(=O)Nc1ccc(-c2nccc3[nH]nc(N)c23)cc1 [Example 29, 1-[4-(3-Amino-1H-pyrazolo[4,3-c]pyrid-4-yl)phenyl]-3-(5-tert-butyl-2-methoxyphenyl)urea] |  |  |  | 181
8 | COc1ccc(C(F)(F)F)cc1NC(=O)Nc1ccc(-c2nccc3[nH]nc(N)c23)cn1 [Example 9, 1-[5-(3-Amino-1H-pyrazolo[4,3-c]pyrid-4-yl)pyrid-2-yl]-3-(2-methoxy-5-trifluoromethylphenyl)urea] |  |  |  | 228
9 | Nc1n[nH]c2cncc(-c3ccc(NC(=O)Nc4cc(C(F)(F)F)ccc4F)cc3)c12 [Example 7, 1-[4-(3-Amino-1H-pyrazolo[3,4-c]pyrid-4-yl)phenyl]-3-(2-fluoro-5-trifluoromethylphenyl)urea] |  | 9 |  | 196
10 | Nc1n[nH]c2ccnc(-c3ccc(NC(=O)Nc4cc(F)ccc4F)cc3)c12 [Example 32, 1-[4-(3-Amino-1H-pyrazolo[4,3-c]pyrid-4-yl)phenyl]-3-(2,5-difluorophenyl)urea] |  |  |  | 187
11 | COc1ccc(C(F)(F)F)cc1NC(=O)Nc1ccc(-c2cncc3[nH]nc(N)c23)cc1 [Example 38, 1-[4-(3-Amino-1H-pyrazolo[3,4-c]pyrid-4-yl)phenyl]-3-(2-methoxy-5-trifluoromethylphenyl]urea] |  |  |  | 210
12 | Nc1n[nH]c2ccnc(-c3ccc(NC(=O)Nc4cc(C(F)(F)F)ccc4F)nc3)c12 [Example 4, 1-[5-(3-Amino-1H-pyrazolo[4,3-c]pyrid-4-yl)pyrid-2-yl]-3-(2-fluoro-5-trifluoromethylphenyl)urea] | 80 | 4 | 218 | 
13 | Cc1ccc(F)c(NC(=O)Nc2ccc(-c3nccc4[nH]nc(N)c34)cc2)c1 [Example 27, 1-[4-(3-Amino-1H-pyrazolo[4,3-c]pyrid-4-yl)phenyl]-3-(2-fluoro-5-methylphenyl-)urea] |  |  |  | 195
14 | Nc1n[nH]c2ccnc(-c3ccc(NC(=O)Nc4ccccc4)cc3)c12 [Example 8, 1-[4-(3-Amino-1H-pyrazolo[4,3-c]pyrid-4-yl]phenyl]-3-phenylurea] |  |  |  | 188
15 | COc1ccc(C(F)(F)F)cc1NC(=O)Nc1ccc(-c2ccnc3[nH]nc(N)c23)cc1 [Example 5, 1-[4-(3-Amino-1H-pyrazolo[3,4-b]pyrid-4-yl)phenyl]-3-(2-methoxy-5-trifluoromethylphenyl)urea] | 286 | 15 | 49 | > 260
16 | CC(=O)Nc1ccc(C(F)(F)F)cc1NC(=O)Nc1ccc(-c2nccc3[nH]nc(N)c23)cc1 [Example 11, N-(2-{3-[4-(3-Amino-1H-pyrazolo[4,3-c]pyrid-4-yl)phenyl]ureido}-4-trifluoromethylphenyl)acetamide] |  |  |  | 182
17 | Cc1ccc(F)cc1NC(=O)Nc1ccc(-c2nccc3[nH]nc(N)c23)cc1 [Example 34, 1-[4-(3-Amino-1H-pyrazolo[4,3-c]pyrid-4-yl)phenyl]-3-(5-fluoro-2-methylphenyl)urea] |  |  |  | > 265
